# Test results as given in the supplement of paper PMC9663587.
# What was measured:
# [1] = compound: COc1ccc2c(c1)[C@]1(C[C@H]1c1ccc3c(/C=C/c4ccc(CN5C[C@@H](C)O[C@@H](C)C5)cc4)n[nH]c3c1)C(=O)N2
# [2] = compound: CO[C@@H](C)Cn1c(=O)n(C)c2cnc3ccc(-c4cncc(C(C)(C)O)c4)cc3c21
# Alpelisib/BYL719 = compound: Cc1nc(NC(=O)N2CCC[C@H]2C(N)=O)sc1-c1ccnc(C(C)(C)C(F)(F)F)c1 [Alpelisib/BYL719]
# [3] = compound: CC(=O)Nc1cccc(-n2c(=O)n(C3CC3)c(=O)c3c(Nc4ccc(I)cc4F)n(C)c(=O)c(C)c32)c1
# [4] = compound: CCCCOc1c(C(=O)c2c(F)cc(C)cc2F)c[nH]c2nncc1-2
# Rucaparib = compound: CNCc1ccc(-c2[nH]c3cc(F)cc4c3c2CCNC4=O)cc1 [Rucaparib]
# Cediranib/AZD2171 = compound: COc1cc2c(Oc3ccc4[nH]c(C)cc4c3F)ncnc2cc1OCCCN1CCCC1 [Cediranib/AZD2171]
# Saracatinib/AZD0530 = compound: CN1CCN(CCOc2cc(OC3CCOCC3)c3c(Nc4c(Cl)ccc5c4OCO5)ncnc3c2)CC1 [Saracatinib/AZD0530]
# AZD1775 = compound: C=CCn1c(=O)c2cnc(Nc3ccc(N4CCN(C)CC4)cc3)nc2n1-c1cccc(C(C)(C)O)n1 [AZD1775]
# THZ1 [5] = compound: T1, CN(C)C/C=C/C(=O)Nc1ccc(C(=O)Nc2cccc(Nc3ncc(Cl)c(-c4c[nH]c5ccccc45)n3)c2)cc1 [THZ1]
# THZ531 [6] = compound: T2, CN(C)C/C=C/C(=O)Nc1ccc(C(=O)N2CCC[C@@H](Nc3ncc(Cl)c(-c4c[nH]c5ccccc45)n3)C2)cc1 [THZ531]
# BVD523 = compound: CC(C)Nc1cc(-c2c[nH]c(C(=O)N[C@H](CO)c3cccc(Cl)c3)c2)c(Cl)cn1 [BVD523]
# [7] = compound: CC(=O)c1c(C)c2cnc(Nc3ccc(N4CCNCC4)cn3)nc2n(C2CCCC2)c1=O; experiment: increase in dead-cell fraction, 72 h; higher = more death;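 further: breast cancer cell lines in 384-well plates, stained with Hoechst plus LIVE/DEAD far red dye and imaged, cells above an LDR intensity threshold counted dead, Hoechst-negative corpses included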
# Neratinib/HKI272 = compound: CCOc1cc2ncc(C#N)c(Nc3ccc(OCc4ccccn4)c(Cl)c3)c2cc1NC(=O)/C=C/CN(C)C [Neratinib/HKI272]; experiment: as above
# YKL-5-124 = compound: C=CC(=O)Nc1ccc(C(=O)Nc2[nH]nc3c2CN(C(=O)N[C@H](CN(C)C)c2ccccc2)C3(C)C)cc1 [YKL-5-124]; experiment: as above
# BSJ-03-123 = compound: CC(=O)c1c(C)c2cnc(Nc3ccc(N4CCN(CCOCCOCCOCCNC(=O)COc5cccc6c5C(=O)N(C5CCC(=O)NC5=O)C6=O)CC4)cn3)nc2n(C2CCCC2)c1=O [BSJ-03-123]; experiment: as above
# LEE011/Ribociclib = compound: CN(C)C(=O)c1cc2cnc(Nc3ccc(N4CCNCC4)cn3)nc2n1C1CCCC1 [LEE011/Ribociclib]; experiment: as above
# [8] = compound: CCc1cnn2c(NCc3ccc[n+]([O-])c3)cc(N3CCCC[C@H]3CCO)nc12; experiment: as above
# THZ1 [9] = compound: T1, THZ1; experiment: as above
# THZ531 [10] = compound: T2, THZ531; experiment: as above
# 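Wherever GR50, 72 h is given: breast cancer and non-malignant breast epithelial cell lines, Deep Dye Drop or Dye Drop imaging, nine half-log doses, GR normalized to time-zero plates and DMSO-only controls.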
cell line,measurement,setting,value
HCC1419,"GR50, 72 h",[1],0.00375 µM
same,"GR50, 72 h",[2],< 0.001 µM
same,"GR50, 72 h",Alpelisib/BYL719,0.669 µM
same,"GR50, 72 h",[3],0.0308 µM
same,"GR50, 72 h",[4],0.65 µM
same,"GR50, 72 h",Rucaparib,> 10 µM
same,"GR50, 72 h",Cediranib/AZD2171,5.06 µM
same,"GR50, 72 h",Saracatinib/AZD0530,0.916 µM
same,"GR50, 72 h",AZD1775,2.59 µM
same,"GR50, 72 h",THZ1 [5],0.0611 µM
same,"GR50, 72 h",THZ531 [6],0.162 µM
same,"GR50, 72 h",BVD523,> 10 µM
same,increase in dead-cell fraction,[7]; 0.0003162 µM,0.0008
same,increase in dead-cell fraction,[7]; 0.001 µM,-0.0028
same,increase in dead-cell fraction,[7]; 0.003162 µM,-0.0032
same,increase in dead-cell fraction,[7]; 0.01 µM,-0.0075
same,increase in dead-cell fraction,[7]; 0.03162 µM,-0.0019
same,increase in dead-cell fraction,[7]; 0.1 µM,-0.0096
same,increase in dead-cell fraction,[7]; 0.3162 µM,-0.0094
same,increase in dead-cell fraction,[7]; 1 µM,-0.0106
same,increase in dead-cell fraction,[7]; 3.162 µM,-0.0074
same,increase in dead-cell fraction,Neratinib/HKI272; 0.0003162 µM,-0.0014
same,increase in dead-cell fraction,Neratinib/HKI272; 0.001 µM,0.0002
same,increase in dead-cell fraction,Neratinib/HKI272; 0.003162 µM,0.0137
same,increase in dead-cell fraction,Neratinib/HKI272; 0.01 µM,0.0803
same,increase in dead-cell fraction,Neratinib/HKI272; 0.03162 µM,0.168
same,increase in dead-cell fraction,Neratinib/HKI272; 0.1 µM,0.238
same,increase in dead-cell fraction,Neratinib/HKI272; 0.3162 µM,0.274
same,increase in dead-cell fraction,Neratinib/HKI272; 1 µM,0.366
same,increase in dead-cell fraction,Neratinib/HKI272; 3.162 µM,0.493
same,increase in dead-cell fraction,YKL-5-124; 0.001 µM,0.0323
same,increase in dead-cell fraction,YKL-5-124; 0.003162 µM,0.0181
same,increase in dead-cell fraction,YKL-5-124; 0.01 µM,0.0297
same,increase in dead-cell fraction,YKL-5-124; 0.03162 µM,0.0399
same,increase in dead-cell fraction,YKL-5-124; 0.1 µM,0.0564
same,increase in dead-cell fraction,YKL-5-124; 0.3162 µM,0.0505
same,increase in dead-cell fraction,YKL-5-124; 1 µM,0.0568
same,increase in dead-cell fraction,YKL-5-124; 3.162 µM,0.0662
same,increase in dead-cell fraction,YKL-5-124; 10 µM,0.187
same,increase in dead-cell fraction,BSJ-03-123; 0.001 µM,0.0036
same,increase in dead-cell fraction,BSJ-03-123; 0.003162 µM,0.0018
same,increase in dead-cell fraction,BSJ-03-123; 0.01 µM,0.0094
same,increase in dead-cell fraction,BSJ-03-123; 0.03162 µM,0.0064
same,increase in dead-cell fraction,BSJ-03-123; 0.1 µM,0.0141
same,increase in dead-cell fraction,BSJ-03-123; 0.3162 µM,0.0138
same,increase in dead-cell fraction,BSJ-03-123; 1 µM,0.0115
same,increase in dead-cell fraction,BSJ-03-123; 3.162 µM,0.0247
same,increase in dead-cell fraction,BSJ-03-123; 10 µM,0.031
same,increase in dead-cell fraction,LEE011/Ribociclib; 0.001 µM,-0.0016
same,increase in dead-cell fraction,LEE011/Ribociclib; 0.003162 µM,0.0044
same,increase in dead-cell fraction,LEE011/Ribociclib; 0.01 µM,0.0015
same,increase in dead-cell fraction,LEE011/Ribociclib; 0.03162 µM,-0.0001
same,increase in dead-cell fraction,LEE011/Ribociclib; 0.1 µM,0.0168
same,increase in dead-cell fraction,LEE011/Ribociclib; 0.3162 µM,0.0148
same,increase in dead-cell fraction,LEE011/Ribociclib; 1 µM,0.0084
same,increase in dead-cell fraction,LEE011/Ribociclib; 3.162 µM,0.0128
same,increase in dead-cell fraction,LEE011/Ribociclib; 10 µM,0.0195
same,increase in dead-cell fraction,[8]; 0.0001 µM,-0.001
same,increase in dead-cell fraction,[8]; 0.0003162 µM,-0.0047
same,increase in dead-cell fraction,[8]; 0.001 µM,-0.0035
same,increase in dead-cell fraction,[8]; 0.003162 µM,-0.0074
same,increase in dead-cell fraction,[8]; 0.01 µM,-0.001
same,increase in dead-cell fraction,[8]; 0.03162 µM,0.0673
same,increase in dead-cell fraction,[8]; 0.1 µM,0.324
same,increase in dead-cell fraction,[8]; 0.3162 µM,0.371
same,increase in dead-cell fraction,[8]; 1 µM,0.369
same,increase in dead-cell fraction,THZ1 [9]; 0.0001 µM,-0.0023
same,increase in dead-cell fraction,THZ1 [9]; 0.0003162 µM,0.0069
same,increase in dead-cell fraction,THZ1 [9]; 0.001 µM,0.0008
same,increase in dead-cell fraction,THZ1 [9]; 0.003162 µM,0.001
same,increase in dead-cell fraction,THZ1 [9]; 0.01 µM,-0.0006
same,increase in dead-cell fraction,THZ1 [9]; 0.03162 µM,-0.0062
same,increase in dead-cell fraction,THZ1 [9]; 0.1 µM,0.0395
same,increase in dead-cell fraction,THZ1 [9]; 0.3162 µM,0.147
same,increase in dead-cell fraction,THZ1 [9]; 1 µM,0.138
same,increase in dead-cell fraction,THZ531 [10]; 0.0001 µM,-0.0026
same,increase in dead-cell fraction,THZ531 [10]; 0.0003162 µM,-0.0053
same,increase in dead-cell fraction,THZ531 [10]; 0.001 µM,0.0001
same,increase in dead-cell fraction,THZ531 [10]; 0.003162 µM,-0.0057
same,increase in dead-cell fraction,THZ531 [10]; 0.01 µM,-0.0018
same,increase in dead-cell fraction,THZ531 [10]; 0.03162 µM,-0.001
same,increase in dead-cell fraction,THZ531 [10]; 0.1 µM,0.0145
same,increase in dead-cell fraction,THZ531 [10]; 0.3162 µM,0.0751
same,increase in dead-cell fraction,THZ531 [10]; 1 µM,0.14
